According to ChEMBL document CHEMBL1201862, “PubChem BioAssay data set” (2004):
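Method: 48-hour compound exposure of cells in 96-well plates, five concentrations, linear interpolation of endpoints. GI50 is the concentration that inhibits growth by half.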 Calls of active or inactive are those of the source. Rule as the data show it: active = GI50 up to about 1.1 µM and inactive = higher.

Experiments:
Experiment in all cases: inhibition of tumour cell growth, NCI panel, 48 h
786-0 = test system: 786-0
A498 = test system: A498
A549 = test system: A549
ACHN = test system: ACHN
CAKI-1 = test system: CAKI-1
CCRF-CEM = test system: CCRF-CEM
COLO 205 = test system: COLO 205
DU-145 = test system: DU-145
EKVX = test system: EKVX
HCC 2998 = test system: HCC 2998
HCT-116 = test system: HCT-116
HCT-15 = test system: HCT-15
HL-60 = test system: HL-60
HOP-62 = test system: HOP-62
HOP-92 = test system: HOP-92
HT-29 = test system: HT-29
Hs-578T = test system: Hs-578T
IGROV-1 = test system: IGROV-1
K562 = test system: K562
KM12 = test system: KM12
LOX IMVI = test system: LOX IMVI
M14 = test system: M14
MDA-MB-231 = test system: MDA-MB-231
MDA-MB-435 = test system: MDA-MB-435
MOLT-4 = test system: MOLT-4
Malme-3M = test system: Malme-3M
NCI-H226 = test system: NCI-H226
NCI-H23 = test system: NCI-H23
NCI-H460 = test system: NCI-H460
NCI-H522 = test system: NCI-H522
NCI/ADR-RES = test system: NCI/ADR-RES
OVCAR-3 = test system: OVCAR-3
OVCAR-4 = test system: OVCAR-4
OVCAR-5 = test system: OVCAR-5
OVCAR-8 = test system: OVCAR-8
PC-3 = test system: PC-3
RPMI-8226 = test system: RPMI-8226
RXF 393 = test system: RXF 393
SF-268 = test system: SF-268
SF-295 = test system: SF-295
SF-539 = test system: SF-539
SK-MEL-28 = test system: SK-MEL-28
SK-MEL-2 = test system: SK-MEL-2
SK-MEL-5 = test system: SK-MEL-5
SK-OV-3 = test system: SK-OV-3
SN12C = test system: SN12C
SNB-19 = test system: SNB-19
SR = test system: SR
SW-620 = test system: SW-620
T47D = test system: T47D
TK-10 = test system: TK-10
U-251 = test system: U-251
UACC-257 = test system: UACC-257
UACC-62 = test system: UACC-62
UO-31 = test system: UO-31
MCF7 = test system: MCF7
MDA-N = test system: MDA-N
SNB-75 = test system: SNB-75

`O=c1ccn2n1Cc1ccccc1C2` was tested, and the GI50 (786-0) was > 100 µM (inactive), the GI50 (A498) was > 100 µM (inactive) and the GI50 (A549) was > 100 µM (inactive). The GI50 (ACHN) was > 100 µM (inactive), the GI50 (CAKI-1) was > 100 µM (inactive) and the GI50 (CCRF-CEM) was > 100 µM (inactive). The GI50 (COLO 205) was > 100 µM (inactive), the GI50 (DU-145) was > 100 µM (inactive) and the GI50 (EKVX) was > 100 µM (inactive). The GI50 (HCC 2998) was > 100 µM (inactive), the GI50 (HCT-116) was > 100 µM (inactive) and the GI50 (HCT-15) was > 100 µM. For the same molecule, the GI50 (HL-60) was > 100 µM (inactive), the GI50 (HOP-62) was > 100 µM (inactive) and the GI50 (HOP-92) was > 100 µM (inactive). For the same molecule, the GI50 (HT-29) was > 100 µM (inactive), the GI50 (Hs-578T) was > 100 µM (inactive) and the GI50 (IGROV-1) was > 100 µM (inactive). The GI50 (K562) was > 100 µM (inactive), the GI50 (KM12) was > 100 µM (inactive) and the GI50 (LOX IMVI) was > 100 µM (inactive). For the same molecule, the GI50 (M14) was > 100 µM (inactive), the GI50 (MDA-MB-231) was > 100 µM (inactive) and the GI50 (MDA-MB-435) was > 100 µM (inactive). The GI50 (MOLT-4) was > 100 µM (inactive), the GI50 (Malme-3M) was > 100 µM (inactive) and the GI50 (NCI-H226) was > 100 µM (inactive). The GI50 (NCI-H23) was > 100 µM (inactive), the GI50 (NCI-H460) was > 100 µM (inactive) and the GI50 (NCI-H522) was > 100 µM (inactive). For the same molecule, the GI50 (NCI/ADR-RES) was > 100 µM (inactive), the GI50 (OVCAR-3) was > 100 µM (inactive) and the GI50 (OVCAR-4) was > 100 µM (inactive). The GI50 (OVCAR-5) was > 100 µM (inactive), the GI50 (OVCAR-8) was > 100 µM (inactive) and the GI50 (PC-3) was > 100 µM (inactive). For the same molecule, the GI50 (RPMI-8226) was > 100 µM (inactive), the GI50 (RXF 393) was > 100 µM (inactive) and the GI50 (SF-268) was > 100 µM (inactive). For the same molecule, the GI50 (SF-295) was > 100 µM (inactive), the GI50 (SF-539) was > 100 µM (inactive) and the GI50 (SK-MEL-28) was > 100 µM (inactive). The GI50 (SK-MEL-2) was > 100 µM (inactive), the GI50 (SK-MEL-5) was > 100 µM (inactive) and the GI50 (SK-OV-3) was > 100 µM (inactive). The GI50 (SN12C) was > 100 µM (inactive), the GI50 (SNB-19) was > 100 µM (inactive) and the GI50 (SR) was > 100 µM (inactive). For the same molecule, the GI50 (SW-620) was > 100 µM (inactive), the GI50 (T47D) was > 100 µM (inactive) and the GI50 (TK-10) was > 100 µM (inactive). For the same molecule, the GI50 (U-251) was > 100 µM (inactive), the GI50 (UACC-257) was > 100 µM (inactive) and the GI50 (UACC-62) was > 100 µM (inactive). For the same molecule, the GI50 (UO-31) was 79.8 µM (inactive).

In the case of `Cn1c(N)nc2c(nc(OCc3ccccc3)n2C2OC(CO)C(O)C2O)c1=O` (stereo not drawn), the GI50 (786-0) is reported as > 100 µM (inactive), the GI50 (A498) is reported as > 100 µM (inactive) and the GI50 (A549) is reported as > 100 µM (inactive). The GI50 (ACHN) was > 100 µM (inactive), the GI50 (CAKI-1) was > 100 µM (inactive) and the GI50 (CCRF-CEM) was > 100 µM (inactive). The GI50 (COLO 205) was > 100 µM (inactive), the GI50 (DU-145) was > 100 µM (inactive) and the GI50 (EKVX) was > 100 µM (inactive). The GI50 (HCT-116) was > 100 µM (inactive), the GI50 (HL-60) was > 100 µM (inactive) and the GI50 (HOP-62) was > 100 µM (inactive). For the same molecule, the GI50 (HOP-92) was > 100 µM (inactive), the GI50 (HT-29) was > 100 µM (inactive) and the GI50 (Hs-578T) was > 100 µM (inactive). For the same molecule, the GI50 (IGROV-1) was > 100 µM (inactive), the GI50 (K562) was > 100 µM (inactive) and the GI50 (KM12) was > 100 µM (inactive). The GI50 (LOX IMVI) was > 100 µM (inactive), the GI50 (M14) was > 100 µM (inactive) and the GI50 (MCF7) was > 100 µM (inactive). The GI50 (MDA-MB-231) was > 100 µM (inactive), the GI50 (MDA-MB-435) was > 100 µM (inactive) and the GI50 (MDA-N) was > 100 µM (inactive). For the same molecule, the GI50 (MOLT-4) was 71.8 µM (inactive), the GI50 (Malme-3M) was > 100 µM (inactive) and the GI50 (NCI-H226) was > 100 µM (inactive). The GI50 (NCI-H460) was > 100 µM (inactive), the GI50 (NCI-H522) was > 100 µM (inactive) and the GI50 (OVCAR-3) was > 100 µM (inactive). The GI50 (OVCAR-4) was > 100 µM (inactive), the GI50 (OVCAR-5) was > 100 µM (inactive) and the GI50 (OVCAR-8) was > 100 µM (inactive). The GI50 (PC-3) was > 100 µM (inactive), the GI50 (RPMI-8226) was > 100 µM (inactive) and the GI50 (RXF 393) was > 100 µM (inactive). The GI50 (SF-268) was > 100 µM (inactive), the GI50 (SF-295) was > 100 µM (inactive) and the GI50 (SK-MEL-28) was > 100 µM (inactive). The GI50 (SK-MEL-2) was > 100 µM (inactive), the GI50 (SK-MEL-5) was > 100 µM (inactive) and the GI50 (SK-OV-3) was > 100 µM (inactive). For the same molecule, the GI50 (SN12C) was > 100 µM (inactive), the GI50 (SNB-19) was > 100 µM (inactive) and the GI50 (SNB-75) was > 100 µM (inactive). The GI50 (SR) was > 100 µM (inactive), the GI50 (SW-620) was > 100 µM (inactive) and the GI50 (T47D) was > 100 µM (inactive). The GI50 (TK-10) was > 100 µM (inactive), the GI50 (U-251) was > 100 µM (inactive) and the GI50 (UACC-257) was > 100 µM (inactive). The GI50 (UACC-62) was > 100 µM (inactive) and the GI50 (UO-31) was > 100 µM (inactive).
